Data as given in patent US9365576B2, “Pyrrolopyrrolidinone compounds” (Novartis AG, priority 2012, dated 2016).

What follows are compounds tested against human MDM2 protein (amino acids 2-188) (Homo sapiens (Human), UniProt Q00987) (assay: TR-FRET assay, p53-MDM2 Assay 2 (modified)). Conditions: TR-FRET; 0.1 nM MDM2, 0.1 nM Europium labeled streptavidin, Tecan genios Pro reader; read-out: IC50 p53-MDM2 Assay 2.
Type: binding
Procedure: The inhibition of p53-MDM2 and p53-MDM4 interactions is measured by time resolved fluorescence energy transfer (TR-FRET). Fluorescence energy transfer (or Foerster resonance energy transfer) describes an energy transfer between donor and acceptor fluorescent molecules. For this assay, human MDM2 protein (amino acids 2-188) and human MDM4 protein (amino acids 2-185), tagged with a C-terminal biotin moiety, are used in combination with a Europium labeled streptavidin (Perkin Elmer, Inc., Waltham, Mass., USA) serving as the donor fluorophore. The p53 derived, Cy5 labeled peptide Cy5-[…] (p53 aa18-26) is the energy acceptor. Upon excitation of the donor molecule at 340 nm, binding interaction between MDM2 or MDM4 and the p53 peptide induces energy transfer and enhanced response at the acceptor emission wavelength at 665 nm. […] The ratiometric FRET assay readout is calculated from the raw data of the two distinct fluorescence signals measured in time resolved mode (fluorescence 665 nm/fluorescence 620 nm×1000).
After addition of 1.25 nM MDM2-biotinylated or 2.5 nM MDM4-biotinylated (internal preparations), and 0.625 nM Europium labeled streptavidin (Perkin Elmer), the solution is pre-incubated for 15 minutes at room temperature, then 10 nM Cy5-p53 peptide (internal preparation) is added before an incubation at room temperature for 15 minutes prior to reading the plate. For measurement of samples, a Victor II microplate reader (Perkin Elmer) is used with the following settings: Excitation 340 nm, Emission Donor 620 nm and Emission Acceptor 665 nm. IC50 values are calculated by curve fitting using XLfit. If not specified, reagents are purchased from Sigma-Aldrich Chemie GmBH, Buchs, Switzerland.

human MDM2 protein (amino acids 2-188), sequence (Q00987 2-188): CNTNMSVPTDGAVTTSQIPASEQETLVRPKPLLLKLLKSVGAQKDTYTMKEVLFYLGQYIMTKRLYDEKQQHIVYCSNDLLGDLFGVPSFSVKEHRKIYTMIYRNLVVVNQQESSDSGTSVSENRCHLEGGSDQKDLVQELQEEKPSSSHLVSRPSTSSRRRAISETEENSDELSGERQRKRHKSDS

Row | IC50 [nM] | SMILES
1 | 44.6 | CNC(=O)c1ccc(OC)c(-c2cc3c(n2C(C)C)[C@@H](c2ccc(Cl)cc2C)N(c2cc(Cl)ccc2C)C3=O)c1 [Example 33, 3-[(R)-5-(5-Chloro-2-methyl-phenyl)-6-(4-chloro-2-methyl-phenyl)-1-isopropyl-4-oxo-1,4,5,6-tetrahydro-pyrrolo[3,4-b]pyrrol-2-yl]-4-methoxy-N-methyl-benzamide]
2 | 0.188 | COc1ccc(-c2nnn[nH]2)cc1-c1cc2c(n1C(C)C)C(c1ccc(Cl)cc1)N(c1cc(Cl)ccc1C)C2=O (centres unmarked) [Example 34, 5-(5-Chloro-2-methyl-phenyl)-6-(4-chloro-phenyl)-1-isopropyl-2-[2-methoxy-5-(1H-tetrazol-5-yl)-phenyl]-5,6-dihydro-1H-pyrrolo[3,4-b]pyrrol-4-one]
3 | 0.169 | COc1ccc(C(=O)O)cc1-c1cc2c(n1C(C)C)C(c1ccc(Cl)cc1)N(c1cc(Cl)ccc1C)C2=O (centres unmarked) [Example 35, 3-[5-(5-Chloro-2-methyl-phenyl)-6-(4-chloro-phenyl)-1-isopropyl-4-oxo-1,4,5,6-tetrahydro-pyrrolo[3,4-b]pyrrol-2-yl]-4-methoxy-benzoic acid]
4 | 0.115 | COc1ccc(C(=O)NCCS(C)(=O)=O)cc1-c1cc2c(n1C(C)C)C(c1ccc(Cl)cc1)N(c1cc(Cl)ccc1C)C2=O (centres unmarked) [Example 36, 3-[5-(5-Chloro-2-methyl-phenyl)-6-(4-chloro-phenyl)-1-isopropyl-4-oxo-1,4,5,6-tetrahydro-pyrrolo[3,4-b]pyrrol-2-yl]-N-(2-methanesulfonyl-ethyl)-4-methoxy-benzamide]
5 | 0.444 | COc1ccc(-c2cc3c(n2C(C)C)C(c2ccc(Cl)cc2)N(c2cc(Cl)ccc2C)C3=O)c(OC)c1 (centres unmarked) [Example 38, 5-(5-Chloro-2-methyl-phenyl)-6-(4-chloro-phenyl)-2-(2,4-dimethoxy-phenyl)-1-isopropyl-5,6-dihydro-1H-pyrrolo[3,4-b]pyrrol-4-one]
6 | 0.556 | COc1nc(N)ncc1-c1cc2c(n1C(C)C)C(c1ccc(C#N)cc1)N(c1ccc(F)c(Cl)c1)C2=O (centres unmarked) [Example 39, 4-[2-(2-Amino-4-methoxy-pyrimidin-5-yl)-5-(3-chloro-4-fluoro-phenyl)-1-isopropyl-4-oxo-1,4,5,6-tetrahydro-pyrrolo[3,4-b]pyrrol-6-yl]-benzonitrile]
7 | 0.478 | COc1ncc(-c2cc3c(n2C(C)C)C(c2ccc(C#N)cc2)N(c2ccc(F)c(Cl)c2)C3=O)c(OC)n1 (centres unmarked) [Example 40, 4-[5-(3-Chloro-4-fluoro-phenyl)-2-(2,4-dimethoxy-pyrimidin-5-yl)-1-isopropyl-4-oxo-1,4,5,6-tetrahydro-pyrrolo[3,4-b]pyrrol-6-yl]-benzonitrile]
8 | 0.349 | COc1nc(N)ncc1-c1cc2c(n1C(C)C)C(c1ccc(C#N)cc1)N(c1cccc(Cl)c1F)C2=O (centres unmarked) [Example 41, 4-[2-(2-Amino-4-methoxy-pyrimidin-5-yl)-5-(3-chloro-2-fluoro-phenyl)-1-isopropyl-4-oxo-1,4,5,6-tetrahydro-pyrrolo[3,4-b]pyrrol-6-yl]-benzonitrile]
9 | 0.246 | COc1ncc(-c2cc3c(n2C(C)C)C(c2ccc(C#N)cc2)N(c2cccc(Cl)c2F)C3=O)c(OC)n1 (centres unmarked) [Example 42, 4-[5-(3-Chloro-2-fluoro-phenyl)-2-(2,4-dimethoxy-pyrimidin-5-yl)-1-isopropyl-4-oxo-1,4,5,6-tetrahydro-pyrrolo[3,4-b]pyrrol-6-yl]-benzonitrile]
10 | 0.401 | COc1nc(N)ncc1-c1cc2c(n1C(C)C)C(c1ccc(C#N)cc1)N(c1cc(Cl)ccc1C)C2=O (centres unmarked) [Example 43]
11 | 0.167 | COc1ncc(-c2cc3c(n2C(C)C)C(c2ccc(C#N)cc2)N(c2cc(Cl)ccc2C)C3=O)c(OC)n1 (centres unmarked) [Example 44, 4-[5-(5-Chloro-2-methyl-phenyl)-2-(2,4-dimethoxy-pyrimidin-5-yl)-1-isopropyl-4-oxo-1,4,5,6-tetrahydro-pyrrolo[3,4-b]pyrrol-6-yl]-benzonitrile]
